Source: patent publication US12257294B2, “Therapeutics for autoimmune disease: synthetic antigens” (DANMARKS TEKNISKE UNIVERSITET, priority 2018, dated 2025)
Non-standard residues stand in square brackets, D forms with d. No end group written: not given here. Cit = NC(=O)NCCC[C@H](N)C(=O)O; {NH2} = amino modification

Experiments:
NZB/W F1 mice = assay: SLE mice study, SLEDAI; format: in vivo; details: 2 weeks of treatment and 2 weeks after
Description: […]1 in 1×PBS was administered by IV in the tail vain every 12 h over 2 weeks, at a conjugate dosage of 160 μg/kg animal weight for 10 nM concentration. 30 mice were tested; 80% were female; average age 20 week; average weight/median 20.2 g (18.4 g-23.1 g). […] (HQ) was used as control, PO, 2 mg/kg, every 24 h over 2 weeks.

NZB/W mice = assay: In vivo mice assay, disease activity index (DAI); details: control treatment, same regimen
Description: For the further in vivo test, a well-described mice model was selected: NZB/W mice, these have been used as a model for autoimmune disease since the early 1960s. Mice of this hybrid cross develop an autoimmune disease resembling human SLE. Nine-week-old NZB/W mice were kindly provided by […] group, Statens Serum Institute, Denmark; they were grown and tested for the presence of anti-dsDNA antibodies as described in example 6. […] Two mice were used for each conjugate. Mice received IV conjugate/control administration (same amount each time), with 12 h intervals for 5 days, and afterwards giving the same dose with 3 day interval over 3 weeks. […] Administration regimen for same as for nanoconjugate complexes: IV in tail vein with 12 h interval for 5 days, and afterwards giving the same dose with 3 day interval. Blood samples were withdrawn at time points: 24 h, 48 h, 1 week, 4 weeks after the beginning of each treatment. Plasma was centrifuged using Qiagen blood storage tubes and stored at -20° C. prior to analyses. ELISA analysis was performed using manufacturer's protocols in sera dilution 1:100 to 1:500. […] At early time points 10 nM conjugate works better than 1 nM.

[1] = tested on: autoantibodies in plasma of RA patients, SLE and healthy controls; assay: ELISA testing of PEP2 and PEP2-nanoconjugates; format: binding, human; details: 30 individuals
Description: Prior to ELISA, total amount of protein in each sample was estimated by Bradford method using standard curve of BSA control at known concentration (BioRad). In a maxisorb 96 well plate controls (BSA standard samples at concentrations 2 mg/mL, 1 mg/mL, 0.5 mg/mL and 0.1 mg/mL) and plasma sample were mixed with a Bradford reagent following manufacturer's protocol (BioRad). Plasma samples were used in dilution 1:100. Resulting absorbances at 595 nm were measured on Magellan Tecan microplate reader. Total amount of protein was calculated using standard curve.
ELISA: Maxisorb 96 well plates (NUNC Thermofisher) were coated with nanoparticle antigens/controls at concentration 8 μg/mL in 1×PBS overnight (room temperature; 100 μl/well). After washing with 1×PT (2×300 μl/well, PT: 50 μl Tween-20 in 1 L 1×PBS), the plates were blocked with 1×PTB (1 h, 37° C.; 100 μl/well, PTB: 20 g BSA, 50 μl Tween-20 in 1 L 1×PBS). Incubation with plasma at desired dilution was performed at room temperature for 1.5 h using diluent: 2 g BSA, 50 μl Tween-20 in 1 L 1×PBS (100 μl/well). This was followed by washing (2×300 μl 1×PBS) and incubation with HPR-labelled secondary antibody for 1.5 h at room temperature using same diluent and dilution of the secondary antibody provided by supplier (HPR-conjugated a-aIgG; Sigma). Subsequent washing (2×300 μl PT) and incubation with freshly prepared TMB-H2O2 solution (Sigma; 100 μl/well) was followed by adding a stop solution (1M H2SO4; 50 μl/well) and reading resulting absorbance values at 450 nm on Magellan Tecan microplate reader. Linear range for each antigen was determined via testing series of control dilutions (SLE and healthy controls in dilutions 1:50 to 1:2000). According to the results plasma dilutions 1:100-1:500 were within linear range of the assay for each antigen (R2>0.95).

[2] = tested on: ACPA in RA sera (vs healthy controls and SLE); assay: ELISA screening of citrullinated peptide library; format: binding, human
From the text: Citrullinated peptide antigens PEP1-PEP25 (SEQ ID No 9-33) (free amine and carboxy-termini) have been purchased from CALSO, Copenhagen, Denmark, and screened in ELISA of a cohort of 30 RA patients, 30 matched healthy controls and 30 patients with systemic lupus erythematosus. Overall, 16 peptide antigens […], from all the three groups, recognised RA sera.

purified SLE-antibodies = assay: ELISA selectivity of antigens D7 and D8 for purified SLE antibodies; format: binding; details: vs control samples comprising other antibodies
Description: SLE antibodies from sera were captured by affinity chromatography using NHS-sepharose and modified antigens as specified in table 9. […] Sera was pre-treated with CaCl2)/dextran to remove lipoproteins prior to applying to column. Sera sample was added to column; incubated for 4 min; washed at 0.5 ml/min flow rate with 20 mM PBS, 5 column volumes; and finally SLE antibodies were eluted with 3 column volumes of 100 mM glycine-HCl, 10% dioxane pH 2.5-3.
Standard ELISA was used to test the selectivity of D7 and D8. ELISA plates comprising antigens D7 and D8, respectively, were tested for their ability to specifically bind the purified SLE-antibodies compared to control samples comprising other antibodies.

[3] = Scanning electron microscopy, nanoparticle size; format: physicochemical; details: SEM
Description: Nanosight experiment: Nanosight measurement was done in Jang lab, DTU, using Nano sight equipment NTA Version: NTA 3.1 Build 3.1.46 with Script SOP Standard Measurement 03-47-19PM 20D. The cell of the equipment must be cleaned and unscrewed totally by ethanol and Millipore water. 500 μL diluted sample was injected three times for three run and the concentration of Nanoparticles was adjusted using water pH 6 if the concentration of samples doesn't fit the analysis. The size distribution data and the size with maximum number of particles were recorded, see FIG. 10.
Scanning Electron Microscopy (SEM): The morphology of the Chitosan nanoparticles (NP) was investigated using a Quanta FEG 3D scanning electron microscope (SEM). Samples were attached on metal stubs with double-sided adhesive carbon tape and coated with 6 nm of gold for better conductivity using a sputter coater (Leica Coater ACE 200). The average NP diameter was calculated using image J analysis software (National Institutes of Health, MD, USA) measured at different NP for each image.

Compound | Positive individuals, %: Disease control SLE [1] | Positive individuals, %: Healthy [1] | Positive individuals, %: Patients with RA [1] | Positive individuals, n: Disease control SLE [1] | Positive individuals, n: Healthy [1] | Positive individuals, n: Patients with RA [1] | Average nanoparticle size [3] | other results
Oc1ccc(O)cc1 [HQ, Hydroquinone] | – | – | – | – | – | – | – | SLEDAI (SLE disease activity index), course (NZB/W F1 mice): reduces SLEDAI faster; however the disease flares after day 17 in treatment
Gentamicin [reference compound] | – | – | – | – | – | – | – | Effect on DAI (NZB/W mice): only a short term drop in DAI
HHP GIA EFP S(Cit)G KSY SYS KQF (HHPGIAEFPS[Cit]GKSYSYSKQF) [PEP2] | (7) % | (0) % | (57) % | 2 | 0 | 17 | – | Binding in RA samples (share of patients) ([2]; 30 RA patients): 57%; Binding in healthy controls (share) ([2]; 30 matched healthy controls): 0%; Binding in SLE (share of patients) ([2]; 30 patients with systemic lupus erythematosus): 7%
NH2-(TCCT)6:(AGGA)6 (TCCTTCCTTCCTTCCTTCCTTCCT; DNA, 5' {NH2}, backbone and methylation of C not given here; further chemistry not fully specified) [Conjugate D8, Pre-annealed amino-modified duplex antigen] | – | – | – | – | – | – | – | Selectivity for SLE antibodies (purified SLE-antibodies): selective for SLE antibodies
NP1: Chitosan/Hyaluronic acid/PEG/PEP2 nanoconjugate, presumably covalent attachment of peptide via PEG to CS/HA (HHPGIAEFPS[Cit]GKSYSYSKQF; ends and bridges not checked; also: presumably covalently attached via PEG to chitosan/hyaluronic acid nanoconjugate) | (7) % | (3) % | (57) % | 2 | 1 | 17 | 100-300 nm | –
NP2: Chitosan/Hyaluronic acid/PEG/PEP2 nanoconjugate, presumably non-covalent attachment of peptide to CS/HA (HHPGIAEFPS[Cit]GKSYSYSKQF; ends and bridges not checked; also: presumably non-covalently loaded in chitosan/hyaluronic acid/PEG nanoconjugate) | (7) % | (7) % | (53) % | 2 | 2 | 16 | 520 nm | –
